Laboratory results from ChEMBL document CHEMBL3351500, “Fragment-based identification and optimization of a class of potent pyrrolo[2,1-f][1,2,4]triazine MAP4K4 inhibitors” (Bioorg Med Chem Lett, 2014).

Experiments:
Format in all cases: ADME, organism-based
[1] = Clearance in mouse plasma at 1 mg/kg, iv; set-up: dose 1 mg/kg, route intravenous
[2] = Volume of distribution at steady state in mouse plasma at 1 mg/kg, iv; set-up: dose 1 mg/kg, route intravenous; details: read-out: Vdss
[3] = Oral bioavailability in mouse plasma at 25 mg/kg

clearance [1]	Vd [2]	bioavailability [3]	Compound
25 mL/min/kg	1 L/kg	6%	CS(=O)(=O)c1ccc(-c2cc3c(Nc4ccncc4)ncnn3c2)cc1
78 mL/min/kg	15 L/kg		CN1CCN(c2ccc(-c3cc4c(Nc5ccncc5)ncnn4c3)cn2)CC1
22 mL/min/kg	2 L/kg	16%	CC(C)(O)Cn1cc(-c2ccc(-c3cc4c(Nc5ccncc5)ncnn4c3)cc2)cn1
